Here are results for 15 compounds from patent US20250179103A1, “6-OXODECAHYDROPYRROLO[1,2-A][1,5]DIAZOCINE AND 6-OXODECAHYDRO-4H-PYRROLO[2,1-D][1,5]THIAZOCINE DERIVATIVES AS STAT3 AND STAT6 MODULATORS FOR THE TREATMENT OF CANCER AND INFLAMMATORY CONDITIONS” (Recludix Pharma, Inc., priority 2022, published 2025).

pIC50: −log10 of the molar value. Bounds are passed on as bounds.

For test [1], the target named is T1, Recombinant STAT3 protein (STAT3(G127-I722)) (Homo sapiens, UniProt P40763).
T1 construct: Recombinant STAT3 protein (STAT3(G127-I722))
T1 sequence (P40763 127-722): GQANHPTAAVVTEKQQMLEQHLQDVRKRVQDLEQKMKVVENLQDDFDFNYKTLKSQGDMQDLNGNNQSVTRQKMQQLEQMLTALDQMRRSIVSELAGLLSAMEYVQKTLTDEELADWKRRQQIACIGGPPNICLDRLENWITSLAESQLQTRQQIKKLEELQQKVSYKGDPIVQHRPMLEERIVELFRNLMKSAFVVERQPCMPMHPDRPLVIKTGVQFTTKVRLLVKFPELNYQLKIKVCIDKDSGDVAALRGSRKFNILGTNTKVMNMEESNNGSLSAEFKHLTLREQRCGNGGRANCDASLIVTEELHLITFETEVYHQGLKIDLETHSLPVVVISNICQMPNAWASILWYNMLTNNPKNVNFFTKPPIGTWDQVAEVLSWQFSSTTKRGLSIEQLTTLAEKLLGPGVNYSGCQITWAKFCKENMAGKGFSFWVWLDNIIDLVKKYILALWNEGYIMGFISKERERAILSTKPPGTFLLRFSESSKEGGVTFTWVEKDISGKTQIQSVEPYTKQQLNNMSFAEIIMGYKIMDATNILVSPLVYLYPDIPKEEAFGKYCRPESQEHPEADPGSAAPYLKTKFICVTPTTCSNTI
As to the kind of experiment: STAT3 Fluorescence Polarization (FP) Assay. Type of test: binding. To be noted: STAT3(G127-I722) 25 nM, probe 5-FAM-GpYLPQTV-NH2 2 nM, 45-minute incubation. In outline:
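STAT3(G127-I722), 25 nM, was mixed with 2 nM 5-FAM-GpYLPQTV-NH2 probe in HEPES pH 7.4 buffer with 1% DMSO and serially diluted compound. FP (mP) was read after 45 min at room temperature. IC50 came from nonlinear regression.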

The target of test [2] is T2, Recombinant STAT6 protein (STAT6(W123-T658)) (Homo sapiens, UniProt P42226).
T2 construct: Recombinant STAT6 protein (STAT6(W123-T658))
T2 sequence (P42226 123-658): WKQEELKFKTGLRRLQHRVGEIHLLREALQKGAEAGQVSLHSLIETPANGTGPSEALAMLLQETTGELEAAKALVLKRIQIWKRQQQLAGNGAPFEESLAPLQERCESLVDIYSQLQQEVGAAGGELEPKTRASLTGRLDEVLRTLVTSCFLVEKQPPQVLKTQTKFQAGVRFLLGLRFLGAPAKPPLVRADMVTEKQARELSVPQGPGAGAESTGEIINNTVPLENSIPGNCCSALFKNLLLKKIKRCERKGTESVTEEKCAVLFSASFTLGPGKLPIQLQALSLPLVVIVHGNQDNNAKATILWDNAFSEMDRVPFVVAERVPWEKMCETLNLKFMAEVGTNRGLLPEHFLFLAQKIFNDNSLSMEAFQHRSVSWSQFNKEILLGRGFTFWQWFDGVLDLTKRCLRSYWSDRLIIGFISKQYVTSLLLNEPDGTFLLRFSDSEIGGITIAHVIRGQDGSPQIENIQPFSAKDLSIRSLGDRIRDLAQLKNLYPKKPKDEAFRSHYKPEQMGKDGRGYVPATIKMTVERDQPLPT
As to the kind of experiment: STAT6 Fluorescence Polarization (FP) Assay. Type of test: binding. To be noted: STAT6(W123-T658) 250 nM, probe 5-FAM-ApYKPFQDLI-NH2 2 nM, 45-minute incubation. Put shortly: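 Displacement of a fluorescent phosphotyrosine peptide (5-FAM-ApYKPFQDLI-NH2, 2 nM) from STAT6(W123-T658) (250 nM), 1% DMSO, pH 7.4 HEPES buffer. After 45 min at room temperature, polarization (mP) was plotted versus log compound concentration and fitted by nonlinear regression to give IC50.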
In general terms: In fluorescence polarisation assays a small probe gives low polarisation when free and higher when bound to something large.

Consider `CC(=O)N1CC[C@H]2CC[C@@H](C(=O)N3C[C@H](c4ccccc4)[C@@H](C#N)C3)N2C(=O)[C@@H](NC(=O)c2cc3cc(C(F)(F)P(=O)(O)O)ccc3s2)C1` [Compound 124, ((2-(((5S,8S,10aR)-3-acetyl-8-((3R,4S)-3-cyano-4-phenylpyrrolidine-1-carbonyl)-6-oxodecahydropyrrolo[1,2-a][1,5]diazocin-5-yl)carbamoyl)benzo[b]thiophen-5-yl)difluoromethyl)phosphonic acid], for which the pIC50 (commonly the negative decadic logarithm of the IC50, by convention in mol/L) was 5.00 to 6.00 in test [1] and no less than 6.52 in test [2].

For the compound `Cc1ccc2[nH]nc(C(=O)N3CC[C@H]4CC[C@@H](C(=O)N5CC(c6cc[nH]c(=O)c6)CC56CC6)N4C(=O)[C@@H](NC(=O)c4ccc5ccc(C(F)(F)P(=O)(O)O)cc5c4)C3)c2c1` (stereo partly drawn) [Compound 367, (difluoro(7-(((5S,8S, 10aR)-3-(5-methyl-1H-indazole-3-carbonyl)-6-oxo-8-(6-(2-oxo-1,2-dihydropyridin-4-yl)-4-azaspiro[2.4]heptane-4-carbonyl)decahydropyrrolo[1,2-a][1,5]diazocin-5-yl)carbamoyl)naphthalen-2-yl)methyl) phosphonic acid], the negative-log IC50 (pIC50) is 5.00 to 6.00 in test [1] and no less than 6.52 in test [2].

Turning to `CC(=O)N1CC[C@H]2CC[C@@H](C(=O)N3CC(c4ccn(C)c(=O)c4)CC34CC4)N2C(=O)[C@@H](NC(=O)c2ccc3ccc(CP(=O)(O)O)cc3c2)C1` (stereo partly drawn) [Compound 356, ((7-(((5S,8S,10a R)-3-acetyl-8-(6-(1-methyl-2-oxo-1,2-dihydropyridin-4-yl)-4-azaspiro[2.4]heptane-4-carbonyl)-6-oxodeca-hydropyrrolo [1,2-a][1,5]diazocin-5-yl)carbamoyl)naphthalen-2-yl)methyl) phosphonic acid], the pIC50 was less than 5.00 in test [1] and 5.52 to 6.52 in test [2].

With `CC(=O)N1CC[C@H]2CC[C@@H](C(=O)N3CC[C@@H](c4ccccc4)[C@H](C#N)C3)N2C(=O)[C@@H](NC(=O)c2cc3cc(C(F)(F)P(=O)(O)O)ccc3s2)C1` (relative stereo) [Compound 154, ((2-(((5S,8S,10aR)-3-acetyl-8-((rel-trans)-3-cyano-4-phenylpiperidine-1-carbonyl)-6-oxodecahydropyrrolo[1,2-a][1,5]diazocin-5-yl)carbamoyl)benzo[b]thiophen-5-yl)difluoromethyl)phosphonic acid], the pIC50 was 5.00 to 6.00 in test [1] and 5.52 to 6.52 in test [2].

For `CC(=O)N1CC[C@H]2CC[C@@H](C(=O)N(C)c3ccc(OCCN(C)C)cc3)N2C(=O)[C@@H](NC(=O)c2cc3cc(C(F)(F)P(=O)(O)O)ccc3s2)C1` [Compound 125, ((2-(((5S,8S,10aR)-3-acetyl-8-((4-(2-(dimethylamino)ethoxy)phenyl)(methyl)carbamoyl)-6-oxodecahydropyrrolo[1,2-a][1,5]diazocin-5-yl)carbamoyl)benzo[b]thiophen-5-yl)difluoromethyl)phosphonic acid], the pIC50 in test [1] is 5.00 to 6.00; in test [2] it was 5.52 to 6.52.

Consider `C[C@@H](CC(=O)N1CC[C@H]2CC[C@@H](C(=O)N3CCCC3)N2C(=O)[C@@H](NC(=O)c2cc3cc(C(F)(F)P(=O)(O)O)ccc3s2)C1)c1ccccc1` [Compound 261, (difluoro(2-(((5S,8S,10aR)-6-oxo-3-((S)-3-phenylbutanoyl)-8-(pyrrolidine-1-carbonyl)decahydropyrrolo[1,2-a][1,5]diazocin-5-yl)carbamoyl)benzo[b]thiophen-5-yl)methyl)phosphonic acid], for which the pIC50 in test [1] was 6.00 to 7.00; in test [2], 5.52 to 6.52.

As to `CC(=O)N1CC[C@H]2CC[C@@H](C(=O)N3CCCC3Cc3cccc(Cl)c3)N2C(=O)[C@@H](NC(=O)c2cc3cc(C(F)(F)P(=O)(O)O)ccc3[nH]2)C1` (stereo partly drawn) [Compound 132, ((2-(((5S,8S,10aR)-3-acetyl-8-(2-(3-chlorobenzyl)pyrrolidine-1-carbonyl)-6-oxodecahydropyrrolo[1,2-a][1,5]diazocin-5-yl)carbamoyl)-1H-indol-5-yl)difluoromethyl)phosphonic acid], the pIC50 is 5.00 to 6.00 in test [1] and 5.52 to 6.52 in test [2].

Consider `Cc1cc(Cl)cc(C(=O)N2CC[C@H](NC(=O)c3ccc4ccc(C(F)P(=O)(O)O)cc4c3)C(=O)N3[C@H](CC[C@H]3C(=O)N3CCOCC3)C2)c1` (stereo partly drawn) [Compound 389, ((7-(((5S,8S,10aR)-2-(3-chloro-5-methyl-benzoyl)-8-(morpholine-4-carbonyl)-6-oxodecahydropyrrolo [1,2-a][1,4]diazocin-5-yl)carbamoyl)naphthalen-2-yl)fluoromethyl) phosphonic acid], for which the pIC50 is less than 5.00 in test [1] and 5.52 to 6.52 in test [2].

Regarding `CC(=O)N1CC[C@H]2CC[C@@H](C(=O)Nc3ccc4[nH]ncc4c3)N2C(=O)[C@@H](NC(=O)c2cc3cc(C(F)(F)P(=O)(O)O)ccc3s2)C1` [Compound 175, ((2-(((5S,8S,10aR)-8-((1H-indazol-5-yl)carbamoyl)-3-acetyl-6-oxodecahydropyrrolo[1,2-a][1,5]diazocin-5-yl)carbamoyl)benzo[b]thiophen-5-yl)difluoromethyl)phosphonic acid], the pIC50 in test [1] was 6.00 to 7.00; in test [2], 5.52 to 6.52.

For the compound `CC(=O)Nc1ccn(C2CCN(C(=O)[C@@H]3CC[C@@H]4CCN(C(C)=O)C[C@H](NC(=O)c5cc6cc(C(F)(F)P(=O)(O)O)ccc6s5)C(=O)N43)C2)n1` (stereo partly drawn) [Compound 84, ((2-(((5S,8S,10aR)-8-(3-(3-acetamido-1H-pyrazol-1-yl)pyrrolidine-1-carbonyl)-3-acetyl-6-oxodecahydropyrrolo[1,2-a][1,5]diazocin-5-yl)carbamoyl)benzo[b]thiophen-5-yl)difluoromethyl)phosphonic acid], the pIC50 in test [1] was 6.00 to 7.00; in test [2] it was 5.52 to 6.52.

For the compound `CC(=O)N1CC[C@H]2CC[C@@H](C(=O)N3C[C@H](C#N)C[C@H]3c3ccccc3)N2C(=O)[C@@H](NC(=O)c2cc3cc(C(F)(F)P(=O)(O)O)ccc3s2)C1` (relative stereo) [Compound 206, ((2-(((5S,8S,10aR)-3-acetyl-8-((rel-trans)-4-cyano-2-phenylpyrrolidine-1-carbonyl)-6-oxodecahydropyrrolo[1,2-a][1,5]diazocin-5-yl)carbamoyl)benzo[b]thiophen-5-yl)difluoromethyl)phosphonic acid], the pIC50 is 5.00 to 6.00 in test [1] and 5.52 to 6.52 in test [2].

Consider `N#Cc1cccc(C2CN(C(=O)[C@@H]3CC[C@@H]4CCN(Cc5ncccn5)C[C@H](NC(=O)c5cc6cc(C(F)P(=O)(O)O)ccc6s5)C(=O)N43)C2)n1` (stereo partly drawn) [Compound 398, ((2-(((5S,8S,10aR)-8-(3-(6-cyanopyridin-2-yl)azetidine-1-carbonyl)-6-oxo-3-(pyrimidin-2-ylmethyl)decahydropyrrolo[1,2-a][1,5]diazocin-5-yl)carbamoyl)benzo[b]thiophen-5-yl)fluoromethyl)phosphonic acid], for which the pIC50 was no less than 7.00 in test [1] and 4.52 to 5.52 in test [2].

Consider `CC(=O)N1CC[C@H]2CC[C@@H](C(=O)N(C)c3ccccc3)N2C(=O)[C@@H](NC(=O)/C=C(\C)c2cccc(C(F)(F)P(=O)(O)O)c2)C1` [Compound 50, ((3-((E)-4-(((5S,8S,10aR)-3-acetyl-8-(methyl(phenyl)carbamoyl)-6-oxodecahydropyrrolo[1,2-a][1,5]diazocin-5-yl)amino)-4-oxobut-2-en-2-yl)phenyl)difluoromethyl)phosphonic acid], for which the pIC50 is less than 5.00 in test [1] and 4.52 to 5.52 in test [2].

For the compound `O=C(N[C@H]1CCN(C(c2ccccc2)c2ccccc2)C[C@H]2CC[C@@H](C(=O)N3CC(c4cccnc4)C3)N2C1=O)c1cc2cc(C(F)(F)P(=O)(O)O)ccc2s1` [Compound 210, ((2-(((5S,8S,10aR)-2-benzhydryl-6-oxo-8-(3-(pyridin-3-yl)azetidine-1-carbonyl)decahydropyrrolo[1,2-a][1,4]diazocin-5-yl)carbamoyl)benzo[b]thiophen-5-yl)difluoromethyl)phosphonic acid], the negative logarithm of the IC50 (pIC50) in test [1] is no less than 7.00; in test [2] it was 4.52 to 5.52.

For the compound `CC(=O)N1CC[C@H]2CC[C@@H](C(=O)N3CCC(OCc4cncs4)C3)N2C(=O)[C@@H](NC(=O)c2cc3cc(C(F)(F)P(=O)(O)O)ccc3s2)C1` (stereo partly drawn) [Compound 82, ((2-(((5S,8S,10aR)-3-acetyl-6-oxo-8-(3-(thiazol-5-ylmethoxy)pyrrolidine-1-carbonyl)decahydropyrrolo[1,2-a][1,5]diazocin-5-yl)carbamoyl)benzo[b]thiophen-5-yl)difluoromethyl)phosphonic acid], the pIC50 is 5.00 to 6.00 in test [1] and 5.52 to 6.52 in test [2].
